Measured values reported in patent US20250289814A1, “COMPOUNDS AS PARP1 INHIBITIORS” (NINGBO NEWBAY TECHNOLOGY DEVELOPMENT CO., LTD., priority 2022, published 2025).
Converted amounts (≈) assume the structure as drawn. “And” between values parts separate entries of the source, which are not always exact repeats. Equal values may be shown once. Read-outs that look alike come from different tables or passages of the source.

Assays:
[1] = biological target: Recombinant full length PARP1 (Homo sapiens (Human), UniProt P09874); assay: FP assay PARP1 (fluorescence anisotropy probe displacement); type: binding; details: 20 nM PARP1, 8 nM fluorescent probe, 4 h, room temperature
In short: (§1)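 Full-length human PARP1 (20 nM) or PARP2 (60 nM), diluted with an equal volume of 8 nM fluorescent probe, incubated 4 h at room temperature in 50 mM Tris pH 8, 0.001% Triton X100, 10 mM MgCl2, 150 mM NaCl. Probe displacement read as polarization (ex 590/em 630 nm, mP). IC50 from four-parameter logistic fit of % inhibition.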

[2] = biological target: Recombinant full length PARP2 (Homo sapiens (Human), UniProt Q9UGN5); assay: FP assay PARP2 (fluorescence anisotropy probe displacement); type: binding; details: 60 nM PARP2, 8 nM fluorescent probe, 4 h, room temperature
In short: as §1

DLD1-BRCA2−/− cells = assay: Cell proliferation assay in DLD1-BRCA2−/− cell lines (CellTiter-Glo, 7 days); type: cell-based
In short: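 Cells in RPMI 1640 + 10% FBS seeded overnight, then exposed to compound or vehicle for 7 days at 37 °C, 5% CO2. Viability read on day 8 by CellTiter-Glo luminescence; % inhibition fitted to a four-parameter logistic curve for IC50.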

[3] = Caco2 (A-B/B-A) permeability; type: in vitro ADME; details: human; for Papp A→B at 120 min, 5 μM: Caco-2, pH 7.4, apical-to-basolateral, read-out: Caco2 A-B apparent permeability (Papp); for Papp A→B at 120 min, 5 μM / Papp B→A at 120 min, 5 μM: HBSS pH 7.4, 120 min, 37° C.; for Papp B→A at 120 min, 5 μM: Caco-2, pH 7.4, basolateral-to-apical, read-out: Caco2 B-A apparent permeability (Papp); for efflux ratio at 120 min, 5 μM: Caco-2, pH 7.4, PappB-A/PappA-B, read-out: Caco2 efflux ratio (ER)
In short: (§2)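 Bidirectional A-B and B-A transport of 5 μM compound across Caco-2 monolayers in HBSS (10 mM HEPES, pH 7.4), duplicate, ~37° C for 120 min. Donor and receiver levels measured by UPLC-MS/MS give Papp. Efflux ratio = PappB-A/PappA-B, with monolayer integrity checked by Lucifer yellow.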

Caco-2 cell monolayers = assay: Caco2 (A-B/B-A) permeability; type: in vitro ADME; details: for Caco2 efflux ratio (ER): PappB-A/PappA-B; for Caco2 A-B apparent permeability (Papp): apical-to-basolateral; for Caco2 A-B apparent permeability (Papp) / Caco2 B-A apparent permeability (Papp): 5 μM, HBSS pH 7.4, 120 min, 37° C.; for Caco2 B-A apparent permeability (Papp): basolateral-to-apical
In short: as §2

[4] = Kinetic solubility, PBS, pH7.4; type: physicochemical; details: 300 μM test compound
Protocol: After incubation, the samples were filtered, and the filtrate was diluted by 1000-fold with water:acetonitrile 1:1 (v/v) for analysis by UPLC MS/MS to determine the concentration of test compound. The solubility value was calculated by quantification against a standard of known concentration.

[5] = Thermodynamic solubility, FaSSiF; type: physicochemical; details: for solubility thermodynamic at 24 h: FaSSIF, 25 °C, thermodynamic from solid
Protocol: All incubations were performed in duplicate. Test compound or the control compound diclofenac sodium (1.0 mg) were placed into 1.5 mL glass vials. FaSSIF (1000 μL) was added into the vials. The samples were transferred to Eppendorf Thermomixer Comfort plate shaker and shaken at 25° C., 1100 rpm for 24 hours. The samples were then filtered. The filtrate was diluted by 1000-fold with water:acetonitrile 1:1 (v/v) for analysis by UPLC MS/MS to determine the concentration of test compound. The solubility value was calculated by quantification against a standard of known concentration.

[6] = PBS pH 7.4, 25 °C, pH 7.4, aqueous buffer, kinetic from dmso stock

Sequence of Recombinant full length PARP2 (Q9UGN5 whole entry): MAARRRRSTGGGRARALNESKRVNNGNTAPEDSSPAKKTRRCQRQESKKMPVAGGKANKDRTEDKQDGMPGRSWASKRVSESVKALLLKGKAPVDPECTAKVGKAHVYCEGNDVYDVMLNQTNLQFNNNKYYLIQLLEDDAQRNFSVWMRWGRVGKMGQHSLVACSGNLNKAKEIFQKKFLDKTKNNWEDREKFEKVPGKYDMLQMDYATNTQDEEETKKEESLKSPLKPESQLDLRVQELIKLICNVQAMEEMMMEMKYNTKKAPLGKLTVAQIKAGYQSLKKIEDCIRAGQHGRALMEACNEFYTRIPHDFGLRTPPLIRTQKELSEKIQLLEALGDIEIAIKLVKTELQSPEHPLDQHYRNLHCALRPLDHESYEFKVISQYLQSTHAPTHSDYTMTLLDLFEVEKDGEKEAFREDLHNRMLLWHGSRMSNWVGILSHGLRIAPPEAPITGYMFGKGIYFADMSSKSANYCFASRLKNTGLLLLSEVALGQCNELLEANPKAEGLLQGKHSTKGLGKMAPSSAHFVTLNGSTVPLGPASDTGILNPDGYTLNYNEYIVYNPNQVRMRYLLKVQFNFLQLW
Sequence of Recombinant full length PARP1 (P09874 whole entry): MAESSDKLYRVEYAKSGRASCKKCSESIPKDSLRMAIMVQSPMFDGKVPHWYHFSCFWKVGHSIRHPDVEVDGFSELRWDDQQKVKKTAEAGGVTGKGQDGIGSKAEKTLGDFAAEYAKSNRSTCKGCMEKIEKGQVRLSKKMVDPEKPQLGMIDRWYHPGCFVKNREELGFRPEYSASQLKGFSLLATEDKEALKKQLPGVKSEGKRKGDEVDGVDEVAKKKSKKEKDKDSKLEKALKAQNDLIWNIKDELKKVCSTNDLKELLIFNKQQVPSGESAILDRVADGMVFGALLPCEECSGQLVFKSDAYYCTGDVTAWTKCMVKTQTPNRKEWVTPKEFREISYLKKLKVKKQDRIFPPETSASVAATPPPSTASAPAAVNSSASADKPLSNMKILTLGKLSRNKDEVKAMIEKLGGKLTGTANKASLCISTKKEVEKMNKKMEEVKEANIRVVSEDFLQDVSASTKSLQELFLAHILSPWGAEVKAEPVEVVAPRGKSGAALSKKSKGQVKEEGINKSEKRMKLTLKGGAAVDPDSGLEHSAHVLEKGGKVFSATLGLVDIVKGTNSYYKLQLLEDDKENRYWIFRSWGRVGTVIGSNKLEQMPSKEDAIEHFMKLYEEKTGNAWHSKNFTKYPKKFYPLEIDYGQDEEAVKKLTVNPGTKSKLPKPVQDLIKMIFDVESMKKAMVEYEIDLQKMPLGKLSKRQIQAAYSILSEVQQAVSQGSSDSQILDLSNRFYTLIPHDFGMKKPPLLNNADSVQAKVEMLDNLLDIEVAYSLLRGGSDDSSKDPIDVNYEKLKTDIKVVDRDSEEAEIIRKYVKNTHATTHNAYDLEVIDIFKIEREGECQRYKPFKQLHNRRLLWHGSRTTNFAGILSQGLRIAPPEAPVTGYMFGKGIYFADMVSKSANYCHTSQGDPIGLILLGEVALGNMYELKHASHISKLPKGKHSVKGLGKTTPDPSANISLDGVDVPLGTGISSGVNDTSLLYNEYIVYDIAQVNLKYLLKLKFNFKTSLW

SMILES | IC50 [1] [nM] | IC50 [2] [µM] | IC50 (DLD1-BRCA2−/− cells; Homo sapiens, DLD-1, 168 h) [nM] | Papp A→B at 120 min, 5 μM [3] [×10⁻⁶ cm/s] | Papp B→A at 120 min, 5 μM [3] [×10⁻⁶ cm/s] | Caco2 efflux ratio (ER) (Caco-2 cell monolayers) | IC50 (DLD1-BRCA2−/− cells) [nM] | Caco2 A-B apparent permeability (Papp) (Caco-2 cell monolayers) | Caco2 B-A apparent permeability (Papp) (Caco-2 cell monolayers) | solubility kinetic at 2 h [4, 6] [µM] | solubility thermodynamic at 24 h [5] [µg/mL] | efflux ratio at 120 min, 5 μM [3] | solubility kinetic at 2 h ([4]; 25° C., read-out: Kinetic solubility, PBS, pH 7.4) [µM] | Thermodynamic Solubility, FaSSiF ([5]; 25° C., 24 hours)
CCc1cc2cnc([C@@H](C)N3CC(Oc4ccc(C(=O)NC)nc4)C3)cc2[nH]c1=O (single isomer, unassigned) [Compound 47, (enantiomer 1 or 2)-5-((1-(1-(3-ethyl-2-oxo-1,2-dihydro-1,6-naphthyridin-7-yl)ethyl)azetidin-3-yl)oxy)-N-methylpicolinamide] | 5.8 | > 10 | 26.8 | 4.82 | 35.6 | (ER = 7.38) | – | – | – | – | – | – | – | –
CCc1cc2ncc([C@@H](C)N3CC(Oc4ccc(C(=O)NC)nc4F)C3)cc2[nH]c1=O (single isomer, unassigned; enantiomer 2) [Compound 46, (enantiomer 2)-5-((1-(1-(7-ethyl-6-oxo-5,6-dihydro-1,5-naphthyridin-3-yl)ethyl)azetidin-3-yl)oxy)-6-fluoro-N-methylpicolinamide] | 4.3 | 2.58 | – | – | – | (ER = 8.07) | 6.6 | 5.51 10*−6 cm/s | 44.49 10*−6 cm/s | – | – | – | – | –
CCc1cc2ncc([C@@H](C)N3CC(Oc4ccc(C(=O)NC)nc4)C3)cc2[nH]c1=O [Compound 4, (R)-5-((1-(1-(7-ethyl-6-oxo-5,6-dihydro-1,5-naphthyridin-3-yl)ethyl)azetidin-3-yl)oxy)-N-methylpicolinamide] | 10.3 | > 10 | 216 | 4.77 | 35.7 | – | – | – | – | 223 (≈ 90.9 µg/mL) | 115 (≈ 283 µM) | 7.49 | – | –

The remaining lines, values ahead:

IC50 [1] [nM] | IC50 [2] [µM] | IC50 (DLD1-BRCA2−/− cells; Homo sapiens, DLD-1, 168 h) [nM] | Papp A→B at 120 min, 5 μM [3] [×10⁻⁶ cm/s] | Papp B→A at 120 min, 5 μM [3] [×10⁻⁶ cm/s] | Caco2 efflux ratio (ER) (Caco-2 cell monolayers) | IC50 (DLD1-BRCA2−/− cells) [nM] | Caco2 A-B apparent permeability (Papp) (Caco-2 cell monolayers) | Caco2 B-A apparent permeability (Papp) (Caco-2 cell monolayers) | solubility kinetic at 2 h [4, 6] [µM] | solubility thermodynamic at 24 h [5] [µg/mL] | efflux ratio at 120 min, 5 μM [3] | solubility kinetic at 2 h ([4]; 25° C., read-out: Kinetic solubility, PBS, pH 7.4) [µM] | Thermodynamic Solubility, FaSSiF ([5]; 25° C., 24 hours) | SMILES
18.1 | > 10 | – | – | – | (ER = 8.36) | 7.2 | 3.84 10*−6 cm/s | 32.1 10*−6 cm/s | – | – | – | – | – | CCc1cc2cnc([C@H](C)N3CC(Oc4ccc(C(=O)NC)nc4F)C3)cc2[nH]c1=O (single isomer, unassigned; enantiomer 2) [Compound 50, (enantiomer 2)-5-((1-(1-(3-ethyl-2-oxo-1,2-dihydro-1,6-naphthyridin-7-yl)ethyl)azetidin-3-yl)oxy)-6-fluoro-N-methylpicolinamide]
4.8 | – | 4.5 | 3.86 | 22.7 | – | – | – | – | 29.4 (≈ 11.6 µg/mL) | 1.77 (≈ 4.5 µM) | – | – | – | CCc1cc2ncc(CN3CC(Oc4ccc(C(=O)NC)nc4)C3)cc2[nH]c1=O [Compound 1, 5-((1-((7-ethyl-6-oxo-5,6-dihydro-1,5-naphthyridin-3-yl)methyl)azetidin-3-yl)oxy)-N-methylpicolinamide]
5.2 | 3.12 | 6.9 | 3.39 | 33.2 | – | – | – | – | 250 (≈ 102 µg/mL) | 107 (≈ 262 µM) | 9.78 | 281.58 (≈ 115 µg/mL) | 145.89 µg/mL and 126.09 µg/mL | CCc1cc2ncc([C@H](C)N3CC(Oc4ccc(C(=O)NC)nc4)C3)cc2[nH]c1=O [Compound 5, (S)-5-((1-(1-(7-ethyl-6-oxo-5,6-dihydro-1,5-naphthyridin-3-yl)ethyl)azetidin-3-yl)oxy)-N-methylpicolinamide]
